From publication PMC3041267 (Angewandte Chemie (International ed. in English), 2009) come the findings set out here.

pIC50: −log10 of the molar value.

The test system of the assay is HDAC activity in HeLa cell nuclear extracts. The format is biochemical. The following applies: read-out: IC50, inhibition of HDAC activity in HeLa cell nuclear extracts; preliminary assessment, fluorescence assay.

As a reminder, the pIC50 is −log10 of the IC50, conventionally taken in molar units. For the compound `CCC(=O)CCCCC[C@@H]1NC(=O)[C@H]2CCCCN2C(=O)[C@H]([C@@H](C)CC)NC(=O)[C@H](Cc2cn(OC)c3ccccc23)NC1=O` [apicidin], the negative logarithm of the IC50 (pIC50) was not below 7.00.
